The supplement of paper PMC5908809

Experiments:
[1] = tested on: normal primary NK cells, pool 3 (3 donors) (IL-2 2.5 ng/mL); test: percent inhibition of viability; higher = more inhibition; settings: 72 h
[2] = tested on: normal primary NK cells, pool 1 (3 donors), resting (IL-2 0 ng/mL); test: as above; settings: 72 h
[3] = tested on: KHYG-1 (IL-2 2.5 ng/mL); test: as above; settings: 72 h
[4] = tested on: YT (IL-2 2.5 ng/mL); test: as above; settings: 72 h
[5] = tested on: normal primary NK cells, pool 2 (3 donors) (IL-2 2.5 ng/mL); test: as above; settings: 72 h
[6] = tested on: NKL (IL-2 2.5 ng/mL); test: as above; settings: 72 h
[7] = tested on: NK-92 (IL-2 2.5 ng/mL); test: as above; settings: 72 h
[8] = tested on: normal primary NK cells, pool 1 (3 donors) (IL-2 2.5 ng/mL); test: as above; settings: 72 h
[9] = tested on: SNK-6 (IL-2 2.5 ng/mL); test: as above; settings: 72 h
[10] = tested on: NK-YS (IL-2 2.5 ng/mL); test: as above; settings: 72 h
[11] = tested on: IMC-1 (IL-2 20 ng/mL); test: as above; settings: 72 h
[12] = tested on: KAI3 (IL-2 2.5 ng/mL); test: as above; settings: 72 h
[13] = tested on: DERL-7 (IL-2 2.5 ng/mL); test: as above; settings: 72 h
[14] = tested on: normal NK cells expanded with K562-aAPC; test: drug sensitivity score (DSS) (DSS units); higher = more sensitive; extreme values may be limits of the assay; settings: 72 h; IL-2 2.5 ng/mL
Description: (§1)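 Drug sensitivity and resistance testing on K562-aAPC-expanded normal NK cells: 5 concentrations (10-fold steps over a 10,000-fold range), 72 h at 37 °C, viability by CellTiter-Glo normalised to DMSO and benzethonium chloride controls; DSS from the fitted curve.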

[15] = tested on: normal primary NK cells, pool 3 (3 donors) (IL-2 2.5 ng/mL); test: as above; settings: 72 h
[16] = tested on: normal primary NK cells, pool 1 (3 donors), resting (IL-2 0 ng/mL); test: as above; settings: 72 h
[17] = tested on: KHYG-1 (IL-2 2.5 ng/mL); test: as above; settings: 72 h
[18] = tested on: YT (IL-2 2.5 ng/mL); test: as above; settings: 72 h
[19] = tested on: normal primary NK cells, pool 2 (3 donors) (IL-2 2.5 ng/mL); test: as above; settings: 72 h
[20] = tested on: NKL (IL-2 2.5 ng/mL); test: as above; settings: 72 h
[21] = tested on: NK-92 (IL-2 2.5 ng/mL); test: as above; settings: 72 h
[22] = tested on: normal primary NK cells, pool 1 (3 donors) (IL-2 2.5 ng/mL); test: as above; settings: 72 h
[23] = tested on: SNK-6 (IL-2 2.5 ng/mL); test: as above; settings: 72 h
[24] = tested on: NK-YS (IL-2 2.5 ng/mL); test: as above; settings: 72 h
[25] = tested on: IMC-1 (IL-2 20 ng/mL); test: as above; settings: 72 h
[26] = tested on: KAI3 (IL-2 2.5 ng/mL); test: as above; settings: 72 h
[27] = tested on: DERL-7 (IL-2 2.5 ng/mL); test: as above; settings: 72 h
[28] = tested on: normal NK cells expanded with K562-aAPC; test: percent inhibition of viability; higher = more inhibition; settings: 72 h, IL-2 2.5 ng/mL
Description: as §1

O=S(=O)(c1cccc2c(O)nccc12)N1CCCNCC1 [Hydroxyfasudil] (max concentration tested 37500 nM)
percent inhibition of viability [%]
Settings | 3.75 nM | 37.5 nM | 375 nM | 3750 nM | 37500 nM
[1] | -6.09 | -6.32 | 12.8 | 7.6 | 21.9
[2] | -1.24 | 11.4 | 11.7 | -5.48 | 13.2
[3] | -8.68 | 0.53 | 6.74 | 10.9 | 23
[4] | -4.2 | 0.69 | 4.57 | -4.39 | 2.68
[5] | -5.27 | -3.13 | -1.92 | 7.54 | 31.2
[6] | 3.67 | 6.42 | 10.9 | 12.7 | 31.9
[7] | 2.93 | 2.6 | 5.94 | -2.67 | 19.6
[8] | -10.4 | -4.9 | -10.6 | -4.54 | 17.3
[9] | 2.11 | -9.82 | 10.9 | 4.05 | 52
[10] | -6.95 | -1.93 | 3.17 | -3.19 | 18.9
[11] | -4.78 | -3.11 | 0.96 | 2.27 | 5.47
[12] | -11.8 | -3.4 | 2.23 | -8.56 | 32.2
[13] | 2.41 | -1.56 | -3.11 | 9.25 | 29.7
[28] | -7.06 | -1.95 | -4.05 | 11.7 | 18.2

Settings | drug sensitivity score
[14] | 1.51
[15] | 1.36
[16] | 0.05
[17] | 1.61
[18] | 0
[19] | 2.54
[20] | 3.11
[21] | 0.43
[22] | 0.25
[23] | 3.39
[24] | 0.37
[25] | 0
[26] | 1.06
[27] | 2.59

Cc1[nH]c(/C=C2\C(=O)Nc3ccccc32)c(C)c1CCC(=O)O [Orantinib] (max concentration tested 10000 nM)
percent inhibition of viability [%]
Settings | 1 nM | 10 nM | 100 nM | 1000 nM | 10000 nM
[1] | -4.8 | 2.21 | 11.9 | -1.68 | 9.39
[2] | -0.49 | 20.7 | 11.4 | 12.2 | 21.7
[3] | -7.11 | -2.97 | -4.54 | 8.46 | 13.8
[4] | -3.34 | 1.08 | 0.41 | 8.54 | 18.7
[5] | -0.89 | -3.13 | 6.7 | -0.82 | 5.48
[6] | -19.2 | -18.2 | -1.7 | 6.18 | 14.6
[7] | -10.9 | -1.51 | -13.1 | 11.1 | 13
[8] | -0.7 | 9.63 | 7.39 | 4.16 | 9.93
[9] | -0.4 | 10.2 | 3.89 | 15.8 | -2.27
[10] | -6.4 | -2.5 | -1.18 | 7.48 | 23.9
[11] | -7.71 | -4.44 | -5.94 | 1.86 | 11
[12] | 0.42 | 1.13 | -2.39 | 7 | 29.4
[13] | 1.12 | -2.21 | -6.87 | -10.2 | -8.27
[28] | -1.66 | -4.19 | -1.4 | 6.04 | 9.43

Settings | drug sensitivity score
[14] | 0
[15] | 0
[16] | 3.33
[17] | 0.65
[18] | 1.23
[19] | 0
[20] | 0.67
[21] | 0.62
[22] | 0
[23] | 0
[24] | 1.86
[25] | 0.04
[26] | 2.32
[27] | 0

Cn1c(=O)c(F)c(Nc2ccc(I)cc2F)c2c(=O)n(C[C@@H](O)CO)cnc21 [TAK-733] (max concentration tested 1000 nM)
percent inhibition of viability [%]
Settings | 0.1 nM | 1 nM | 10 nM | 100 nM | 1000 nM
[1] | -10.4 | -14.4 | -11.3 | 2.73 | 8.36
[2] | -1.91 | 4.44 | -3.15 | -6.45 | -3.7
[3] | 4.66 | 9.31 | 20.6 | 48.8 | 64.9
[4] | -3.29 | 0.91 | 1.73 | 6.99 | 14.3
[5] | -4.31 | -4.06 | 11.2 | 17 | 13.8
[6] | 0.9 | 12 | 40.6 | 60.1 | 81.3
[7] | 3 | 0.98 | -25.3 | -5.54 | 19.1
[8] | -3.53 | 3.59 | 5.44 | 11.3 | 7.77
[9] | 6 | 0.96 | -6.2 | 3.19 | -10.3
[10] | -2.42 | 2.48 | 3.61 | 10.7 | 25.6
[11] | -1.32 | 1.37 | 0.58 | 3.83 | 18.9
[12] | 2.03 | 4.38 | 17.2 | 23.1 | 29.4
[13] | 3.05 | 13.4 | 23 | 41.5 | 47.2
[28] | -0.54 | 1.65 | 5.46 | 3.7 | 18.7

Settings | drug sensitivity score
[14] | 0.89
[15] | 0
[16] | 0
[17] | 11.7
[18] | 0.35
[19] | 2.88
[20] | 17.2
[21] | 0.33
[22] | 0.17
[23] | 0
[24] | 1.77
[25] | 1
[26] | 5.51
[27] | 10.7

N#CC(c1ccnc(OCc2ccc(CN3CCOCC3)cc2)n1)c1nc2ccccc2s1 (stereo not given) [Bentamapimod] (max concentration tested 10000 nM)
percent inhibition of viability [%]
Settings | 1 nM | 10 nM | 100 nM | 1000 nM | 10000 nM
[1] | -6.62 | -9.78 | -6.35 | -8.64 | 19.9
[2] | 3.62 | 7.45 | -14.2 | -14.4 | -16.2
[3] | -0.61 | -1.53 | 4.6 | 13.5 | 64
[4] | -4.27 | -0.56 | 3.3 | 13.5 | 56.8
[5] | -16.9 | -6.81 | -3.2 | -3.66 | 38.2
[6] | -15.9 | -16.8 | -9.05 | 13.2 | 71.2
[7] | -0.51 | -7.45 | -6.19 | 10.8 | 47.6
[8] | -3.1 | -0.66 | -15.6 | -7.74 | 4.64
[9] | 8.11 | -3.58 | -13.1 | -25.4 | 8.78
[10] | -3.99 | -3.72 | 3.63 | 20.3 | 47.6
[11] | 0.67 | -4.76 | 0.93 | 6.64 | 58.2
[12] | -1.88 | -7.11 | -2.63 | 14.7 | 40.9
[13] | -1.64 | -1.25 | -0.32 | 14.8 | 51.5
[28] | 1.11 | -7.13 | 0.02 | 9.12 | 35.7

Settings | drug sensitivity score
[14] | 3.1
[15] | 0.34
[16] | 0
[17] | 5.69
[18] | 5.2
[19] | 1.6
[20] | 6.1
[21] | 4.21
[22] | 0
[23] | 0
[24] | 4.74
[25] | 4.25
[26] | 4.12
[27] | 4.97

Cc1ccc2nc(CN(CCN(Cc3nc4ccc(C)cc4[nH]3)Cc3nc4ccc(C)cc4[nH]3)Cc3nc4ccc(C)cc4[nH]3)[nH]c2c1 (max concentration tested 50000 nM)
percent inhibition of viability [%]
Settings | 5 nM | 50 nM | 500 nM | 5000 nM | 50000 nM
[1] | -5.58 | -1.41 | 10.2 | 5.2 | 32.2
[2] | -25.9 | 1.32 | 12.4 | 24.8 | 99.8
[3] | -9.01 | -6.49 | -6.15 | 36.3 | 108
[4] | -8.1 | -15.1 | -6.51 | 29.4 | 108
[5] | -1.51 | 3.91 | 12.8 | 12.1 | 37.9
[6] | 2.31 | -9.86 | 19.8 | 69.1 | 107
[7] | -27.1 | -13.1 | 15.2 | 54.5 | 110
[8] | -9.49 | 4.67 | 4.72 | 25.6 | 101
[9] | -21 | -28.4 | -6.29 | -12.1 | 101
[10] | -2.1 | -1.56 | 2.07 | 18.1 | 107
[11] | -6.83 | -3.4 | -4.29 | 10.4 | 51.3
[12] | -0.45 | -7.54 | 8.33 | 62.9 | 110
[13] | 2.65 | -5.22 | 4.05 | 22 | 101
[28] | -4.88 | -8.25 | -3.73 | 17.5 | 100

Settings | drug sensitivity score
[14] | 8.41
[15] | 2.31
[16] | 9.11
[17] | 10.5
[18] | 9.85
[19] | 3.42
[20] | 15.5
[21] | 12.5
[22] | 9.43
[23] | 4.89
[24] | 8.57
[25] | 4.41
[26] | 13.3
[27] | 9.01
